One block for each molecule: values may come before it.
Key:
SSTR 5 [1] = biological target: T1, SSTR 5 (Homo sapiens, UniProt P35346); assay: human SSTR5 antagonist activity using intracellular cAMP concentration as an indicator (HTRF); type: cell-based; parameters: expressed in transfected cells; details: 1 µM test compound; CHO (dhfr-) cells expressing human SSTR5; 0.1 nM somatostatin 28, 0.3 µM forskolin; read-out: inhibitory rate (%) against SSTR5 at 1 µM
Description: The intracellular cAMP concentration was measured using HTRF cAMP dynamic 2 kit (Cisbio). A test compound diluted with an assay buffer (5 mM HEPES (pH 7.5) (Invitrogen), 0.1% fatty-acid free BSA (Sigma), and 500 µM IBMX (Wako)-containing HBSS (Invitrogen)) was added at 2 µL/well to a 384-well white plate (Greiner) to a final concentration of 1 µM. Frozen stock of CHO (dhfr-) cells stably expressing the human SSTR5 gene (Accession No. NM_001053) was thawed in a thermostatic tank at 37°C and suspended in a passage medium (MEM alpha (Wako)) containing 10% dialyzed serum (Gemini) and 50 µg/mL gentamicin (Invitrogen). The cell suspension was centrifuged, and the cells were resuspended in an assay buffer, and added by 2 µL to each well at about 4,000 cells/well. The compound and the cells were incubated for 15 min, an assay buffer containing a final concentration 0.1 nM of somatostatin 28 (Toray Research Center) and 0.3 µM forskolin (Wako) was added by 2 µL/well, and the cells were incubated at room temperature for 30 min. cAMP-d2 and anti-cAMP-cryptate were each added by 3 µL/well, allowed to stand at room temperature for 60 min, and the fluorescence resonance energy transfer (FRET) intensity was measured using the Multi-label reader Envision (Perkin Elmer). The FRET intensity of the wells to which the test compound group was added was converted into cAMP concentration by using a calibration curve created from the FRET intensities of well groups in which cAMP at any concentration was added to the assay buffer. The inhibitory activity of the compound was calculated using the following formula. Inhibitory activity(%) = (C−B)/(A−B) × 100 [formula] • A: cAMP concentration calculated from wells containing 0.3 µM forskolin • B: cAMP concentration calculated from wells containing 0.3 µM forskolin, 0.1 nM somatostatin 28 • C: cAMP concentration of wells containing 0.3 µM forskolin, 0.1 nM somatostatin 28, and 1 µM test compound

[2] = system: healthy Japanese adult men; assay: Phase 1 single dose study, blood anterior pituitary hormone concentrations (ELISA); type: in vivo; details: human
Description: The examples in this section show the measurement results of blood anterior pituitary hormone concentrations using blood samples from a dose escalation study targeting healthy Japanese adult men, from A Randomized, Double-Blind, Placebo-Controlled, Phase 1 Study (jRCT2051210027) targeting healthy adults, which was conducted to examine the safety and tolerability, pharmacokinetics, and pharmacodynamic action of a single administration of test compound 1.
In a randomized, double-blind, placebo-controlled, parallel-group comparison, dose-escalation study consisting of 7 cohorts, a single dose of test compound 1 (1, 3, 10, 20, 40, 80 and 160 mg) or placebo was orally administered under fasting conditions. Eight test subjects (6 in the active drug group and 2 in the placebo group) participated in each cohort. The concomitant use of all medications was prohibited from 28 days before hospitalization until discharge.
The test subjects were inspected and examined within 28-2 days and 1 day before administration of test compound 1, and eligibility was confirmed based on the above-mentioned inclusion criteria and exclusion criteria. […] They were fasted for 10 hr before administration and 4 hr after administration until lunch, and took lunch at 13:00 p.m. The blood was collected 0.5 hr before and 1, 2, 4, 6, 8, and 10 hr after administration of test compound 1.
The concentration of anterior pituitary hormone was measured using blood from the placebo administration group of all cohorts and the test subjects who received administration of 1 mg or 10 mg of test compound 1, at 0.5 hr before administration and 2, 4, 6, 8, and 10 hr after administration. The concentrations of growth hormone, follicle-stimulating hormone, luteinizing hormone, thyroid-stimulating hormone, adrenocorticotropic hormone, and prolactin in blood were measured using the Human Growth Hormone Quantikine ELISA Kit (manufactured by R&D Systems), Follicle-Stimulating Hormone (Human) ELISA Kit (manufactured by Cayman Chemical), Luteinizing Hormome (Human) ELISA Kit (manufactured by Cayman Chemical), U-TSH ELISA (manufactured by BIOCHECK), ACTH ELISA Kit (manufactured by MB Biosciences GmbH), and Human Prolactin Quantikine ELISA Kit (manufactured by R&D Systems) according to the protocol described in the package insert of each kit.

SSTR 5 [3] = biological target: T1, SSTR 5; assay: radiolabeled ligand binding assay, selectivity for human SSTR subtype; parameters: expressed in transfected cells; host or cells: CHO-K1 cells (membrane fraction)
Description: (§1) The selectivity of test compounds for human SSTR subtypes was investigated by radiolabeled ligand binding assay. The membrane fraction of CHO-K1 cells expressing human SSTR1-5 was suspended in am assay buffer (25 mM HEPES (pH 7.4), 5 mM MgCl2, 1 mM CaCl2, 10 µg/mL saponin, 0.5% fatty-acid free BSA) and incubated for 1 hr in the presence of 1 µM test compound 1 and [^125I] Tyr^11-somatostatin 14 (Perkin Elmer). Thereafter, the solution containing the membrane fraction was transferred onto a filter plate, and after washing the filter six times with a wash buffer (25 mM HEPES, 5 mM MgCl2, 1 mM CaCl2), 50 µL of Microscint 20 (Packard) was added, and the radioactivity was measured using a TopCount (Perkin Elmer). The results of competitive activity of the test compound against the binding of the human SSTR subtypes with the labeled ligands are shown in Table 2.

SSTR 4 = biological target: T2, SSTR 4 (Homo sapiens, UniProt P31391); assay: as above; details: CHO-K1 membrane fraction, [125I] Tyr11-somatostatin 14, 1 µM compound
T2 construct: expressed in transfected cells; host or cells: CHO-K1 cells (membrane fraction)
Description: as §1

SSTR 1 = biological target: T3, SSTR 1 (Homo sapiens, UniProt P30872); assay: as above; details: CHO-K1 membrane fraction, [125I] Tyr11-somatostatin 14, 1 µM compound
T3 construct: expressed in transfected cells; host or cells: CHO-K1 cells (membrane fraction)
Description: as §1

SSTR 3 = biological target: T4, SSTR 3 (Homo sapiens, UniProt P32745); assay: as above; details: CHO-K1 membrane fraction, [125I] Tyr11-somatostatin 14, 1 µM compound
T4 construct: expressed in transfected cells; host or cells: CHO-K1 cells (membrane fraction)
Description: as §1

SSTR 2 = biological target: T5, SSTR 2 (Homo sapiens, UniProt P30874); assay: as above; details: CHO-K1 membrane fraction, [125I] Tyr11-somatostatin 14, 1 µM compound
T5 construct: expressed in transfected cells; host or cells: CHO-K1 cells (membrane fraction)
Description: as §1

T1 sequence (P35346 whole entry): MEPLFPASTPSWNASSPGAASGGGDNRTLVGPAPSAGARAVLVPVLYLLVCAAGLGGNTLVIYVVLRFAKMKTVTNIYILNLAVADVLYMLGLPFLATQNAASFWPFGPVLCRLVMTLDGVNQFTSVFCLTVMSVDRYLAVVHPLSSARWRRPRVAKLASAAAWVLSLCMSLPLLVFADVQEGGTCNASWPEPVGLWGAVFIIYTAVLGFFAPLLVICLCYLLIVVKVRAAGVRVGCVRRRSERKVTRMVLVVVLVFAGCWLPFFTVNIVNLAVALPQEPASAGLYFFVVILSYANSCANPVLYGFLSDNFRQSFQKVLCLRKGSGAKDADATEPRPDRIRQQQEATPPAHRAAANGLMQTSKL
T3 sequence (P30872 whole entry): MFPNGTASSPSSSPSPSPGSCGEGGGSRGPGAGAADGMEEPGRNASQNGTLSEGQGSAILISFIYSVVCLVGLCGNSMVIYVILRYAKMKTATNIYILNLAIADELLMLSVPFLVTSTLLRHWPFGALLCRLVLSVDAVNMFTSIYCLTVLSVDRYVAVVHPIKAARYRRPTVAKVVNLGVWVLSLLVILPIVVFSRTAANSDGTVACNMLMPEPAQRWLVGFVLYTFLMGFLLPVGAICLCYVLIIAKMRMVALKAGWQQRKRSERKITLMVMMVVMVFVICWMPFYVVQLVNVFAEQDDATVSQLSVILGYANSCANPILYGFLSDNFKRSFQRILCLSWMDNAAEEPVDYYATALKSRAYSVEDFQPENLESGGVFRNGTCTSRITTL
T2 sequence (P31391 whole entry): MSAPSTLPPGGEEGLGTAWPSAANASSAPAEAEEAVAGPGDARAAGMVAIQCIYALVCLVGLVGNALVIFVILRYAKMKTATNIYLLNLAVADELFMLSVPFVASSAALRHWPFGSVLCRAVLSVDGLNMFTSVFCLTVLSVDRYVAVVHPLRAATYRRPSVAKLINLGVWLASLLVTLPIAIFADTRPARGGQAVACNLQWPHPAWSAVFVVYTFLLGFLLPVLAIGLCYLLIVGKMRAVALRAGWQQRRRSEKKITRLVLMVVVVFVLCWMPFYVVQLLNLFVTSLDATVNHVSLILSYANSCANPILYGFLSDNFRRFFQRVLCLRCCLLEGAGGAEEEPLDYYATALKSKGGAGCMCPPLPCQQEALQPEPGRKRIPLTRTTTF
T4 sequence (P32745 whole entry): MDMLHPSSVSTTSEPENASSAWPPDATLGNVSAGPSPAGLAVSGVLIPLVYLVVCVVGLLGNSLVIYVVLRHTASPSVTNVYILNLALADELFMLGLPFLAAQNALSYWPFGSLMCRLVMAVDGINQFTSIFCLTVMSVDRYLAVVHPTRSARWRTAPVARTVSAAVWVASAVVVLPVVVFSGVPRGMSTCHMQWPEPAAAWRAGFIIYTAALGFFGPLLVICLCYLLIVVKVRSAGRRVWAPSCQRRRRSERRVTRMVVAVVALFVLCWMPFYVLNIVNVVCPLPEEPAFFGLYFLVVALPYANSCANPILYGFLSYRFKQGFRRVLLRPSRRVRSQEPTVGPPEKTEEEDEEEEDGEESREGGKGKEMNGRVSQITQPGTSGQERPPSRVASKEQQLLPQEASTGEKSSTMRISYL
T5 sequence (P30874 whole entry): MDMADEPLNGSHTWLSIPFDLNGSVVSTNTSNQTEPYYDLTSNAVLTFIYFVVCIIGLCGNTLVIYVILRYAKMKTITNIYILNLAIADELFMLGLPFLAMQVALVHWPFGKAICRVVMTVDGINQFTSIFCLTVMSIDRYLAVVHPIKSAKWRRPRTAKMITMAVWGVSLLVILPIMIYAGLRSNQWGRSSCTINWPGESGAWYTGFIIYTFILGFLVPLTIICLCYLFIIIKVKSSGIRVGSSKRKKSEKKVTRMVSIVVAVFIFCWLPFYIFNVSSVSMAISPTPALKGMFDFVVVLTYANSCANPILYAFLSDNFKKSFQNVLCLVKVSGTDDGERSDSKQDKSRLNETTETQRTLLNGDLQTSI

inhibition at 1 µM (SSTR 5 [1]): 87%
labeled ligand binding rate (%) at 1 µM (SSTR 5 [3]; SSTR 5, CHO-K1 membrane fraction, [125I] Tyr11-somatostatin 14, 1 µM compound): 4.51%
selectivity among the human SSTR subtypes (SSTR 5 [3]; conclusion from Table 2, 1 µM): selectively binds to SSTR5
labeled ligand binding rate (%) at 1 µM (SSTR 4): 109.00%
labeled ligand binding rate (%) at 1 µM (SSTR 1): 105.83%
labeled ligand binding rate (%) at 1 µM (SSTR 3): 99.22%
labeled ligand binding rate (%) at 1 µM (SSTR 2): 100.31%
SMILES: CCCc1nc2c(cc1C(=O)O)C(=O)N(C1CCN(Cc3cc(C4CC4)c(-c4ccc(F)cc4)cc3OCC)CC1)CC2 [test compound 1, 6-(1-((2-cyclopropyl-5-ethoxy-4'-fluorobiphenyl-4-yl)methyl)piperidin-4-yl)-5-oxo-2-propyl-5,6,7,8-tetrahydro-1,6-naphthyridine-3-carboxylic acid]
growth hormone secretion (blood growth hormone concentration) ([2]; single oral dose 1 mg and 10 mg, fasting, up to 10 hr after administration, Fig. 1): clearly enhance growth hormone secretion
secretion of follicle-stimulating hormone ([2]; single oral dose 1 mg and 10 mg, fasting, Fig. 2): did not substantially affect the secretion
secretion of luteinizing hormone ([2]; single oral dose 1 mg and 10 mg, fasting, Fig. 3): did not substantially affect the secretion
secretion of thyroid-stimulating hormone ([2]; single oral dose 1 mg and 10 mg, fasting, Fig. 4): did not substantially affect the secretion
secretion of adrenocorticotropic hormone ([2]; single oral dose 1 mg and 10 mg, fasting, Fig. 5): did not substantially affect the secretion
secretion of prolactin ([2]; single oral dose 1 mg and 10 mg, fasting, Fig. 6): did not substantially affect the secretion
increase in blood growth hormone concentration compared with growth hormone replacement therapy ([2]; compared with literature values for patients with pediatric growth hormone deficiency (J Clin Endocrinol Metab. 2017)): corresponds to the blood growth hormone concentration obtained by growth hormone replacement therapy

inhibition at 1 µM (SSTR 5 [1]): 85%
SMILES: CCCc1nc2c(cc1C(=O)O)C(=O)N(C1CCN(Cc3cc(C4CC4)c(-c4ccc(F)cc4)c(F)c3OCC)CC1)CC2 [test compound 2, 6-(1-((6-cyclopropyl-3-ethoxy-2,4'-difluorobiphenyl-4-yl)methyl)piperidin-4-yl)-5-oxo-2-propyl-5,6,7,8-tetrahydro-1,6-naphthyridine-3-carboxylic acid]

inhibition at 1 µM (SSTR 5 [1]): 125%
SMILES: CCCc1nc2c(cc1C(=O)O)C(=O)N(C1CCN(Cc3cc(C4CC4)c(-c4ccc(F)cc4F)cc3OCC)CC1)CC2 [test compound 3, 6-(1-((2-cyclopropyl-5-ethoxy-2',4'-difluorobiphenyl-4-yl)methyl)piperidin-4-yl)-5-oxo-2-propyl-5,6,7,8-tetrahydro-1,6-naphthyridine-3-carboxylic acid]

inhibition at 1 µM (SSTR 5 [1]): 95%
SMILES: CCOc1c(CN2CCC(N3CCc4nc(CC)c(C(=O)O)cc4C3=O)CC2)cc(C2CC2)c(-c2ccc(F)cc2)c1F [test compound 4, 6-(1-((6-cyclopropyl-3-ethoxy-2,4'-difluorobiphenyl-4-yl)methyl)piperidin-4-yl)-2-ethyl-5-oxo-5,6,7,8-tetrahydro-1,6-naphthyridine-3-carboxylic acid]

inhibition at 1 µM (SSTR 5 [1]): 87%
SMILES: CCOc1c(CN2CCC(n3ccc(C(=O)O)c(CC)c3=O)CC2)cc(C2CC2)c(-c2ccc(F)cc2)c1F [test compound 5, 1-(1-((6-cyclopropyl-3-ethoxy-2,4'-difluorobiphenyl-4-yl)methyl)piperidin-4-yl)-3-ethyl-2-oxo-1,2-dihydropyridine-4-carboxylic acid]

inhibition at 1 µM (SSTR 5 [1]): 99%
SMILES: Cc1c(C(=O)O)ccn(C2CCN(Cc3cc(C4CC4)c(-c4ccc(F)cc4)c(F)c3OC(C)C)CC2)c1=O [test compound 6, 1-(1-((6-cyclopropyl-2,4'-difluoro-3-isopropoxybiphenyl-4-yl)methyl)piperidin-4-yl)-3-methyl-2-oxo-1,2-dihydropyridine-4-carboxylic acid]

inhibition at 1 µM (SSTR 5 [1]): 87%
SMILES: CCOc1c(CN2CCC(n3ccc(C(=O)O)c(C)c3=O)CC2)cc(C2CC2)c(-c2ccc(F)cc2)c1F [test compound 7, 1-(1-((6-cyclopropyl-3-ethoxy-2,4'-difluorobiphenyl-4-yl)methyl)piperidin-4-yl)-3-methyl-2-oxo-1,2-dihydropyridine-4-carboxylic acid]

— patent EP4691489A1, “GROWTH HORMONE SECRETION PROMOTER” (Scohia Pharma, Inc., priority 2023, dated 2024)
